Data taken from patent US20100137266A1, “TREATMENT OF INSULIN RESISTANCE AND DISORDERS ASSOCIATED THEREWITH” (UNIVERSITETET I OSLO, priority 2006, published 2010).

Assays:
GLUT1, GLUT3, GLUT4 = assay: mRNA levels of glucose transporters in myotubes by Real-Time RT-PCR; type: cell-based, human; conditions: for GLUT4 mRNA level, increase: 1 μmol/l T0901317 or 10 μmol/l 22-R-HC for 4 days
Text: FIG. 7. Glucose transport is increased in human myotubes after chronic 22-S-HC treatment. Human myoblasts were allowed to differentiate for 2 days, and then exposed to 1 μmol/1 T0901317, 10 μmol/[…]) or 1, 2, 5 and 10 μmol/1 22-S-HC(S-HC) for 4 days. […] (A) Present means for glucose uptake±SEM (n=4). Basal level for control are 1.20±0.24 nmol/mg cell protein. (B) A representative dose-response curve for glucose uptake after 1, 2, 5 and 10 μmol/l 22-S-HC treatment (n=3). (C) Total RNA were reversely transcribed and analyzed by Real-Time RT-PCR. Results are normalized to levels of 36B4 and present means±SEM (n=4-6). Relative expressions of GLUT1, GLUT3, GLUT4, and hexokinase (HK)II, ^ap<0.05 vs control, ^dp<0.05 vs T0901317. RNA isolation and analysis of gene expression by RT-PCR. Myotubes were washed, trypsinized and pelleted before total RNA was isolated by RNeasy Mini kit (Qiagen Sciences, Oslo, Norway) or Agilent Total RNA Mini kit (Matrix, Oslo, Norway) according to the suppliers total RNA isolation protocol. RNA samples were incubated with RNase-free DNase (Qiagen Sciences) for minimum 15 min in an additional step during the RNA isolation procedure. Total RNA (1 μg/μl) was reversely transcribed with […] primers using a Perkin-Elmer Thermal Cycler 9600 (25° C. for 10 min, 37° C. for 1 h, 99° C. for 5 min) and a TaqMan reverse-transcription reagents kit (Applied Biosystems). Real time PCR was performed using an ABI PRISM® 7000 Detection System. DNA expression was determined by SYBR® Green (Applied Biosystems), and primers [36B4 (Acc#M17885), ACSL1 (Acc#NM-001995), ABCA1 (Acc#AF165281), CD36 (Acc#L06850), FAS (Acc#U26644), GAPDH (Acc#J104038/M33197, GLUT4 (Acc#M20747), LXRα (Acc#U22662), LXR (Acc#U07132), Myogenin (Acc#X17651), MyoD (Acc#BC064493), PPARα (Acc#L02932), PPARδ (Acc#BC002715), PPARγ (Acc#L40904), SCD-1 (Acc#AB032261), SREBP1c (Acc#U00968)], GLUT1, (Acc#03195), GLUT3 ([…]) were designed using Primer Express® (Applied Biosystems). Each target gene was quantified in triplicates and carried out in a 25 μl reaction volume according to the suppliers protocol. […]

human myotubes = assay: Palmitate uptake and lipid distribution: TAG synthesis from [1-14C]palmitic acid in myotubes; type: cell-based
Description: FIG. 3. 22-hydroxycholesterols influence TAG synthesis from palmitic acid differently than T0901317. Human myoblasts were allowed to differentiate for 2 days, and then exposed to vehicle (0.1% DMSO), 1 μM T0901317, or 10 μM 22-S-hydroxycholesterol (22-S-HC) for 4 days. Differentiated myotubes were then incubated with [1-^14C]PA (0.5 μCi/ml, 0.1 mM) for 4 h before triacylglycerol (TAG) levels were determined. Results present means±SEM (n=4; independent muscle cell donors). *p<0.05 vs control, **p<0.05 vs all other treatments.
Human skeletal muscle cell cultures. A cell bank of satellite cells was established from muscle biopsy samples of the M. vastus lateralis of 6 healthy volunteers, age 25.7 years (±1.4), with BMI 21.6 (±1.0) and fasting glucose and insulin within normal range. The biopsies were obtained with informed consent and by approval of the National Committee for Research Ethics, Oslo, Norway. Muscle cell cultures free of fibroblasts were established by the method of Henry et al. (Diabetes, 44, 936-946, 1995), with minor modifications. Briefly, muscle tissue was dissected in Ham's F-10 media at 4° C., dissociated by three successive treatments with 0.05% trypsin/EDTA, and satellite cells were re-suspended in SkGM with 2% FCS and no added insulin. The cells were grown on culture wells coated with ECM gel (Apmis, 109, 726-734, 2001). At about 80% confluence, fusion of myoblasts into multinucleated myotubes was achieved by growth in DMEM with 2% FCS. All cells used were at passage 4 to 6. […]
Palmitate uptake and lipid distribution. […] The radioactivity in the cell fraction (20 μl) was quantified by liquid scintillation (Packard Tri-Carb 1900 TR) (Gaster et al, Diabetes, 53, 542-548, 2004). The protein content of each sample was determined (Bradford, Anal. Biochem., 72, 248-254, 1976), and triacylglycerol (TAG) was extracted (Gaster et al, supra). Briefly, the homogenized cell fraction (220 μl) was extracted, lipids separated by thin-layer chromatography and the radioactivity was quantified by liquid scintillation.

LXR target genes = assay: Gene expression of LXR target genes in myotubes by Real-Time RT-PCR; type: cell-based, human; conditions: after 22-S-HC treatment; data not shown
[1] = test system: Myotubes from type II diabetic subjects; assay: T0901317 response in myotubes from type II diabetic vs healthy subjects; type: cell-based, human; conditions: 1 μM; type II diabetic myotubes compared to myotubes from healthy donors
Description: FIG. 9. […] T0901317 (1 μM) response of (A) palmitate uptake, distribution into cellular lipids and oxidation and (B) glucose uptake (GT), oxidation (GOX) and glycogen synthesis (GS) in myotubes from healthy donors and donors with type 2 diabetes #p≦0.05 vs control myotubes.

Compound | GLUT4 mRNA level, increase (GLUT1, GLUT3, GLUT4) [fold] | synthesis of TAG compared to T0901317 treatment (human myotubes; 10 μM for 4 days vs 1 μM T0901317) | reduction in incorporation of labeled palmitate into TAG (human myotubes; 10 μM for 4 days, compared to control myotubes) [%] | FAS mRNA expression observed on a micro fluid card (LXR target genes) | TAG synthesis from labeled palmitate (human myotubes; 1 μM T0901317 for 4 days, [1-14C]PA 4 h, vs control) | glucose uptake in response to T0901317 [1] | palmitate oxidation to CO2 in response to T0901317 [1] | uptake and incorporation of palmitate into complex lipids in response to T0901317 [1] | mRNA level of glucose transporter 1 (GLUT1) (GLUT1, GLUT3, GLUT4; treatment for 4 days)
CC(C)CC[C@@H](O)[C@@H](C)[C@H]1CC[C@H]2[C@@H]3CC=C4C[C@@H](O)CC[C@]4(C)[C@H]3CC[C@]12C [Example 22-R-HC, 22-R-hydroxycholesterol] | 4 | – | – | – | – | – | – | – | –
CC(C)CC[C@H](O)[C@@H](C)[C@H]1CC[C@H]2[C@@H]3CC=C4C[C@@H](O)CC[C@]4(C)[C@H]3CC[C@]12C [Example 22-S-HC, 22-S-hydroxycholesterol] | – | significantly reduced | 50 | significantly reduced | – | – | – | – | –
O=S(=O)(c1ccccc1)N(CC(F)(F)F)c1ccc(C(O)(C(F)(F)F)C(F)(F)F)cc1 [Example T0901317] | 4 | – | – | – | increased | reduced | absence | elevated | tended to increase
